Converted amounts (≈) assume the structure as drawn.
How the values were obtained:
JAK1 = JAK1 (Homo sapiens (Human), UniProt P23458); assay: Biochemical JAK and Tyk2 Kinase Assays (LanthaScreen), JAK1; details: 25 μM ATP (Km), pIC50 converted to pKi by Cheng-Prusoff
Protocol: (§1) Assay 1: Biochemical JAK and Tyk2 Kinase Assays
(§2) A panel of four LanthaScreen JAK biochemical assays (JAK1, 2, 3 and Tyk2) were carried in a common kinase reaction buffer (50 mM HEPES, pH 7.5, 0.01% Brij-35, 10 mM MgCl2, and 1 mM EGTA). Recombinant GST-tagged JAK enzymes and a GFP-tagged STAT1 peptide substrate were obtained from Life Technologies.
(§3) Serially or discretely diluted compounds were pre-incubated with each of the four JAK enzymes and the substrate in white 384-well microplates (Corning) at ambient temperature for 1 h. ATP was subsequently added to initiate the kinase reactions in 10 μL total volume, with 1% DMSO. The final enzyme concentrations for JAK1, 2, 3 and Tyk2 are 4.2 nM, 0.1 nM, 1 nM, and 0.25 nM respectively; the corresponding Km ATP concentrations used are 25 μM, 3 μM, 1.6 μM, and 10 μM; while the substrate concentration is 200 nM for all four assays. Kinase reactions were allowed to proceed for 1 hour at ambient temperature before a 10 μL preparation of EDTA (10 mM final concentration) and Tb-anti-pSTAT1 (pTyr701) antibody (Life Technologies, 2 nM final concentration) in TR-FRET dilution buffer (Life Technologies) was added. The plates were allowed to incubate at ambient temperature for 1 h before being read on the EnVision reader (Perkin Elmer). Emission ratio signals (520 nm/495 nm) were recorded and utilized to calculate the percent inhibition values based on DMSO and background controls.
(§4) For dose-response analysis, percent inhibition data were plotted vs. compound concentrations, and IC50 values were determined from a 4-parameter robust fit model with the Prism software (GraphPad Software). Results were expressed as pIC50 (negative logarithm of IC50) and subsequently converted to pKi (negative logarithm of dissociation constant, Ki) using the Cheng-Prusoff equation.

JAK3 = JAK3 (Homo sapiens (Human), UniProt P52333); assay: Biochemical JAK and Tyk2 Kinase Assays (LanthaScreen), JAK3; details: 1.6 μM ATP (Km); pIC50 converted to pKi by Cheng-Prusoff; read-out: JAK 3 (pKi) (converted)
Sequence of JAK3 (P52333 whole entry): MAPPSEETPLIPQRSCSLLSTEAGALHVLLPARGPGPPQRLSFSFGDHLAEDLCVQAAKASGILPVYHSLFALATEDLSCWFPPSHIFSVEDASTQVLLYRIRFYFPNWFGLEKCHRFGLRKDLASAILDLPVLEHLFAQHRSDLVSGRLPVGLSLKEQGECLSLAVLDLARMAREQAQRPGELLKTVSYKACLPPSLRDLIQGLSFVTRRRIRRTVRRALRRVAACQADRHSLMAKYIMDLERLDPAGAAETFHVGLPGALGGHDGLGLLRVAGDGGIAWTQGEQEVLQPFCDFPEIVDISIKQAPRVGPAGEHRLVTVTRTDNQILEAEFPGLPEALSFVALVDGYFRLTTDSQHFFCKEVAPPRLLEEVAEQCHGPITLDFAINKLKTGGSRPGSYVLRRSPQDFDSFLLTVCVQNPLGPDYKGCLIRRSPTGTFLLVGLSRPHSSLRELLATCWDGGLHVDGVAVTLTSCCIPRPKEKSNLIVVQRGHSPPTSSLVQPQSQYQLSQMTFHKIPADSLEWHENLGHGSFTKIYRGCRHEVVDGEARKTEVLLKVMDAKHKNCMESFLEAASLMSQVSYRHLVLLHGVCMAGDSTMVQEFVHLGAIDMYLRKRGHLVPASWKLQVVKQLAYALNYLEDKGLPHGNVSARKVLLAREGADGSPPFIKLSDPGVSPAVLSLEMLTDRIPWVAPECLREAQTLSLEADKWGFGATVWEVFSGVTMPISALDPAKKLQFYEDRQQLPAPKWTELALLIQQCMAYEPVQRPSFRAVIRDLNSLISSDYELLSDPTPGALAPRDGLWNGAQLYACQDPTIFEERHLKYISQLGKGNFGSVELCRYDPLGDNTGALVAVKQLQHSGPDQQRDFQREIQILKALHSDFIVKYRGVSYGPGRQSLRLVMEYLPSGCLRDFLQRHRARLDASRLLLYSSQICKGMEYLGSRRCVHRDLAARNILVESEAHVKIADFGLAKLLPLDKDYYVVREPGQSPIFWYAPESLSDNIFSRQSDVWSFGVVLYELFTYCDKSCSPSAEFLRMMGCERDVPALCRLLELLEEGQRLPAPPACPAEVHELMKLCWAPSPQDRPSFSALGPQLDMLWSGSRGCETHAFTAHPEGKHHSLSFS
Protocol: as §1, §2, §3, §4

[1] = system: IL-2 stimulated pSTAT5 in Tall-1 T cells; assay: Inhibition of IL-2 Stimulated pSTAT5 in Tall-1 T Cells; type: cell-based; details: Tall-1 human T cell line, IL-2 300 ng/mL, AlphaLisa; read-out: Tall-1 IL2 pSTAT5 (pIC50) (converted)
Protocol: Assay 2: Inhibition of IL-2 Stimulated pSTAT5 in Tall-1 T Cells
The potency of test compounds for inhibition of interleukin-2 (IL-2) stimulated STATS phosphorylation was measured in the Tall-1 human T cell line (DSMZ) using AlphaLisa. Because IL-2 signals through JAK1/3, this assay provides a measure of JAK1/3 cellular potency.
Phosphorylated STATS was measured via the AlphaLISA SureFire Ultra pSTAT5 (Tyr694/699) kit (PerkinElmer). Human T cells from the Tall-1 cell line were cultured in a 37° C., 5% CO2 humidified incubator in RPMI (Life Technologies) supplemented with 15% Heat Inactivated Fetal Bovine Serum (FBS, Life Technologies), 2 mM Glutamax (Life Technologies), 25 mM HEPES (Life Technologies) and 1× Pen/Strep (Life Technologies). Compounds were serially diluted in DMSO and dispensed acoustically to empty wells. Assay media (phenol red-free DMEM (Life Technologies) supplemented with 10% FBS (ATCC)) was dispensed (4 μL/well) and plates shaken at 900 rpm for 10 mins. Cells were seeded at 45,000 cells/well in assay media (4 μL/well), and incubated at 37° C., 5% CO2 for 1 hour, followed by the addition of IL-2 (R&D Systems; final concentration 300 ng/mL) in pre-warmed assay media (4 μL) for 30 minutes. After cytokine stimulation, cells were lysed with 6 ul of 3× AlphaLisa Lysis Buffer (PerkinElmer) containing 1× PhosStop and Complete tablets (Roche). The lysate was shaken at 900 rpm for 10 minutes at room temperature (RT). Phosphorylated STATS was measured via the pSTAT5 AlphaLisa kit (PerkinElmer). Freshly prepared acceptor bead mixture was dispensed onto lysate (51) under green filtered <100 lux light. Plates were shaken at 900 rpm for 2 mins, briefly spun down, and incubated for 2 hrs at RT in the dark. Donor beads were dispensed (5 μL) under green filtered <100 lux light. Plates were shaken at 900 rpm for 2 minutes, briefly spun down, and incubated overnight at RT in the dark. Luminescence was measured with excitation at 689 nm and emission at 570 nm using an EnVision plate r reader (PerkinElmer) under green filtered <100 lux light.
To determine the inhibitory potency of test compounds in response to IL-2, the average emission intensity of beads bound to pSTAT5 was measured in a human T cell line. IC50 values were determined from analysis of the inhibition curves of signal intensity versus compound concentration. Data are expressed as pIC50 (negative decadic logarithm IC50) values (mean±standard deviation).

physchem = details: thermodynamic from solid
Caco-2 cell monolayer = assay: Caco-2 Permeation Assay; type: in vitro ADME; details: Papp, 5 μM compound; for Cacoverap Kp 10^−6 cm/sec: A→B in the presence of 25 μM verapamil (P-gp inhibitor); for Caco Kp 10^−6 cm/sec: apical to basal (A→B)
Protocol: Assay 3: Caco-2 Permeation Assay
The Caco 2 permeability assay was used as a surrogate for assessment of skin permeability. This assay measures the in vitro permeability across a monolayer of Caco-2 cells, which morphologically and functionally resemble the enterocytes of the small intestine.
CacoReady 24-well transwell plates were obtained from ADMEcell (Alameda, Calif.). The compounds were evaluated at a concentration of 5 μM from 10 mM DMSO stock solutions in duplicate (n=2). Transport in the apical to basal (A→B) direction was determined in Caco 2 cell monolayers. From these values the apparent permeability (Papp) was calculated. To inform on the potential of the compound to be a P-gp substrate, the transport of the compound across the Caco-2 cell monolayer was also determined in the presence of 25 μM of the known P-gp inhibitor verapamil (Yusa and Tsuruo et al., Cancer Research, vol. 49, no. 18, 1989, pp. 5002-06).
Caco-2 culture media consisted of standard filtered DMEM, FCS 10%, L-Glutamine 1%, and PenStrep 1%. The experiment was conducted at 37° C. and in a CO2 (5%) incubator. The basal assay plate was prepared by adding 750 pt of transport buffer to A→B wells. A CacoReady™ plate was prepared by removing the Caco-2 media from the apical wells and replacing with fresh transport media (200 pt repeated for a total of 3 washes). Blank media (200 μL) was then replaced with diluted compound. To begin the incubation, the basal plate was removed from the incubator and the apical section was added on top of it. Samples were collected from the apical and basal compartments for time zero (t0). Samples were collected again after 120 minutes (t120) from the apical and basal compartments. All samples were diluted and prepared for bioanalysis by LC-MS/MS. The permeability coefficients (Papp, mean A to B) and (Papp, mean A to B+Verapamil) in cm/sec were calculated as dQ (flux)/(dt×Area×concentration).
In this assay, a compound with a Papp value of more than about 12×10−6 cm/sec is considered to have high permeability.

[2] = oil or lipid, Solubility in MCT (mg/mL)
[3] = organic solvent or mixture, Solubility in Diisopropyl adipate (mg/mL)
[4] = organic solvent or mixture, Solubility in PEG400 (mg/mL)
[5] = organic solvent or mixture, Solubility in Propylene glycol (mg/mL)

Sequence of JAK1 (P23458 whole entry): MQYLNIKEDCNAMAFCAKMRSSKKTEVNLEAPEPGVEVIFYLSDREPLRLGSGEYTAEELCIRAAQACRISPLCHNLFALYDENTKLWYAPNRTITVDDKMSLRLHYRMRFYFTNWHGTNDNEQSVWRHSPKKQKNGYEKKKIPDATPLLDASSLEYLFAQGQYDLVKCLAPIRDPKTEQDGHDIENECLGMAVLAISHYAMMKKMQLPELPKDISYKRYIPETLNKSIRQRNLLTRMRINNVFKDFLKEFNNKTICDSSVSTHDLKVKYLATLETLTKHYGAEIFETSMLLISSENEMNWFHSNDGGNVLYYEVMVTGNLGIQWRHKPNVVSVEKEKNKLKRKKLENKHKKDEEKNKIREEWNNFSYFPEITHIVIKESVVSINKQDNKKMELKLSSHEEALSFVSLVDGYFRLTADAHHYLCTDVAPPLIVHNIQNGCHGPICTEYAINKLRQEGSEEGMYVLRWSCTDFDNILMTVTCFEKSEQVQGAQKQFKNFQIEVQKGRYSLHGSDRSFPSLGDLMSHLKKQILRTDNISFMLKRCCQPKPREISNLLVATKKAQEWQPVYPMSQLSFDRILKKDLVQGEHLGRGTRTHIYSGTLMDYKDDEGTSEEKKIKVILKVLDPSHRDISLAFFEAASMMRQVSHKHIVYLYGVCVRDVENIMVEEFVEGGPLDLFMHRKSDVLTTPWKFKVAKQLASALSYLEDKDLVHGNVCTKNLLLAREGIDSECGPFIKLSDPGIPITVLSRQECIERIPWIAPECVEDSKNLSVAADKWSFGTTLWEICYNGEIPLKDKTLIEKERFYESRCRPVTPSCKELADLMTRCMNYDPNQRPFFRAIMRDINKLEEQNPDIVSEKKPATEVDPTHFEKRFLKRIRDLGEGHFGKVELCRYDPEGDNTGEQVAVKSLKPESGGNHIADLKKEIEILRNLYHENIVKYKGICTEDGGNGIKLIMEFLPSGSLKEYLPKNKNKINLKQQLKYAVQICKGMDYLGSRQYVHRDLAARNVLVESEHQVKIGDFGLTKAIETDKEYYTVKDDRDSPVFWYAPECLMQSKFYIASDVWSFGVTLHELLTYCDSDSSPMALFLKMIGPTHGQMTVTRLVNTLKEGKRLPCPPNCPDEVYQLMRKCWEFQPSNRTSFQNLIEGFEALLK

Structure (SMILES)	JAK 1 (pKi) (JAK1)	Ki (JAK3) [nM]	IC50 [1] [nM]	solubility at 4 h (physchem; [2]) [µg/mL]	solubility at 4 h (physchem; [3]) [µg/mL]	solubility at 4 h (physchem; [4]) [µg/mL]	solubility at 4 h (physchem; [5]) [µg/mL]	Cacoverap Kp 10^−6 cm/sec (Caco-2 cell monolayer)	Caco Kp 10^−6 cm/sec (Caco-2 cell monolayer)	Ki (JAK1; read-out: JAK 1 (pKi) (converted)) [nM]
CCNC(=O)CN1[C@@H]2CCC[C@H]1C[C@H](N(C)c1nc(Nc3cc(C)[nH]n3)cc(OC3COC3)n1)C2 [Compound 37]	A (A represents a pKi value ≥10 (Ki≤0.1 nM))	0.1 to 1	≤ 10	< 5000	< 5000	< 5000	< 5000	–	–	–
Cc1cc(Nc2cc(O[C@@H]3CCOC3)nc(N(C)[C@@H]3C[C@H]4CCC[C@@H](C3)N4C(=O)CC3CC3)n2)n[nH]1 [Compound 26]	A (A represents a pKi value ≥10 (Ki≤0.1 nM))	0.1 to 1	≤ 10	< 5000	< 5000	< 5000	< 5000	–	–	–
CCS(=O)(=O)N1[C@@H]2CCC[C@H]1C[C@H](N(C)c1nc(Nc3cc(C)[nH]n3)cc(C3CCOCC3)n1)C2 [Compound 1, N^2-((1R,3s,5S)-9-(ethylsulfonyl)-9-azabicyclo[3.3.1]nonan-3-yl)-N^2-methyl-N^4-(5-methyl-1H-pyrazol-3-yl)-6-(tetrahydro-2H-pyran-4-yl)pyrimidine-2,4-diamine]	A (A represents a pKi value ≥10 (Ki≤0.1 nM))	0.1 to 1	≤ 10	< 5000	> 10000	> 10000	> 10000	A (A represents a value above 35×10^−6 cm/sec)	A (A represents a value above 30×10^−6 cm/sec)	–
CCNC(=O)CN1[C@@H]2CCC[C@H]1C[C@H](N(C)c1nc(Nc3cc(C)[nH]n3)cc(O[C@@H]3CCOC3)n1)C2 [Compound 20]	A (A represents a pKi value ≥10 (Ki≤0.1 nM))	0.1 to 1	≤ 10	< 5000	> 10000	> 10000	> 10000	B (B represents a value between 20×10^−6 and 35×10^−6 cm/sec)	B (B represents a value between 15×10^−6 and 30×10^−6 cm/sec)	–
COCCC(=O)N1[C@@H]2CCC[C@H]1C[C@H](N(C)c1nc(Nc3cc(C)[nH]n3)cc(O[C@H]3CCOC3)n1)C2 [Compound 29]	A (A represents a pKi value ≥10 (Ki≤0.1 nM))	0.1 to 1	≤ 10	< 5000	> 10000	5000 to 10000 (≈ 10 to 20 mM)	> 10000	–	–	–
Cc1cc(Nc2cc(O[C@@H]3CCOC3)nc(N(C)[C@@H]3C[C@H]4CCC[C@@H](C3)N4CC(=O)N3CCCC3)n2)n[nH]1 [Compound 19]	A (A represents a pKi value ≥10 (Ki≤0.1 nM))	0.1 to 1	≤ 10	< 5000	< 5000	< 5000	< 5000	–	–	–
COC(=O)N1[C@@H]2CCC[C@H]1C[C@H](N(C)c1nc(Nc3cc(C)[nH]n3)cc(O[C@H]3CCOC3)n1)C2 [Compound 27]	A (A represents a pKi value ≥10 (Ki≤0.1 nM))	0.1 to 1	10 to 31.6	< 5000	< 5000	< 5000	< 5000	–	–	–
CCOC(=O)N1[C@@H]2CCC[C@H]1C[C@H](N(C)c1nc(Nc3cc(C)[nH]n3)cc(O[C@@H]3CCOC3)n1)C2 [Compound 24]	A (A represents a pKi value ≥10 (Ki≤0.1 nM))	0.1 to 1	10 to 31.6	< 5000	< 5000	< 5000	< 5000	–	–	–
CCC(=O)N1[C@@H]2CCC[C@H]1C[C@H](N(C)c1nc(Nc3cc(C)[nH]n3)cc(O[C@H]3CCOC3)n1)C2 [Compound 28]	A (A represents a pKi value ≥10 (Ki≤0.1 nM))	0.1 to 1	≤ 10	< 5000	5000 to 10000 (≈ 10.6 to 21.3 mM)	5000 to 10000 (≈ 10.6 to 21.3 mM)	> 10000	–	–	–
Cc1cc(Nc2cc(O[C@H]3CCOC3)nc(N(C)[C@@H]3C[C@H]4CCC[C@@H](C3)N4C(=O)CC3CC3)n2)n[nH]1 [Compound 30]	A (A represents a pKi value ≥10 (Ki≤0.1 nM))	0.1 to 1	≤ 10	< 5000	< 5000	< 5000	< 5000	–	–	–
Cc1cc(Nc2cc(OC3COC3)nc(N(C)[C@@H]3C[C@H]4CCC[C@@H](C3)N4CC(=O)N3CCCC3)n2)n[nH]1 [Compound 38]	A (A represents a pKi value ≥10 (Ki≤0.1 nM))	0.1 to 1	≤ 10	< 5000	< 5000	< 5000	< 5000	–	–	–
COC(=O)N1[C@@H]2CCC[C@H]1C[C@H](N(C)c1nc(Nc3cc(C)[nH]n3)cc(OC3COC3)n1)C2 [Compound 36]	–	1 to 10	≤ 10	< 5000	5000 to 10000 (≈ 10.9 to 21.9 mM)	> 10000	> 10000	B (B represents a value between 20×10^−6 and 35×10^−6 cm/sec)	B (B represents a value between 15×10^−6 and 30×10^−6 cm/sec)	0.1 to 1
